#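 These data come from cells grown in 96-well plates and exposed to compound for 48 hours at five concentrations. The concentration for 50% growth inhibition is given as GI50. TGI: total growth inhibition.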
# Experiments:
# Assay in all cases: NCI-60 cell line screen, 48 h
# SF-295 CNS = system: SF-295 CNS
# SNB-75 CNS = system: SNB-75 CNS
# MDA-MB-231 breast = system: MDA-MB-231 breast
# UACC-62 melanoma = system: UACC-62 melanoma
# OVCAR-3 ovarian = system: OVCAR-3 ovarian
# K-562 leukemia = system: K-562 leukemia
# BT-549 breast = system: BT-549 breast
# A549 NSCLC = system: A549 NSCLC
# NCI/ADR-RES ovarian = system: NCI/ADR-RES ovarian
# SK-MEL-2 melanoma = system: SK-MEL-2 melanoma
# HCT-116 colon = system: HCT-116 colon
# OVCAR-5 ovarian = system: OVCAR-5 ovarian
# UACC-257 melanoma = system: UACC-257 melanoma
# NCI-H23 lung = system: NCI-H23 lung
# OVCAR-8 ovarian = system: OVCAR-8 ovarian
# NCI-H522 lung = system: NCI-H522 lung
# SW-620 colon = system: SW-620 colon
# HCC-2998 colon = system: HCC-2998 colon
# A498 renal = system: A498 renal
# MOLT-4 leukemia = system: MOLT-4 leukemia
# HT29 colon = system: HT29 colon
# NCI-H226 lung = system: NCI-H226 lung
# MDA-MB-435 = system: MDA-MB-435
# DU-145 prostate = system: DU-145 prostate
# SF-539 CNS = system: SF-539 CNS
# U251 CNS = system: U251 CNS
# SF-268 CNS = system: SF-268 CNS
# HL-60(TB) leukemia = system: HL-60(TB) leukemia
# T-47D breast = system: T-47D breast
# COLO 205 colon = system: COLO 205 colon
# SK-MEL-28 melanoma = system: SK-MEL-28 melanoma
# KM12 colon = system: KM12 colon
# M14 melanoma = system: M14 melanoma
# UO-31 renal = system: UO-31 renal
# ACHN renal = system: ACHN renal
# SK-OV-3 ovarian = system: SK-OV-3 ovarian
# LOX IMVI melanoma = system: LOX IMVI melanoma
# SK-MEL-5 melanoma = system: SK-MEL-5 melanoma
# SNB-19 CNS = system: SNB-19 CNS
# SN12C renal = system: SN12C renal
# CCRF-CEM leukemia = system: CCRF-CEM leukemia
# RXF 393 renal = system: RXF 393 renal
# HOP-62 NSCLC = system: HOP-62 NSCLC
# MCF7 breast = system: MCF7 breast
# CAKI-1 renal = system: CAKI-1 renal
# NCI-H460 lung = system: NCI-H460 lung
# SR leukemia = system: SR leukemia
# RPMI-8226 leukemia = system: RPMI-8226 leukemia
# HCT-15 colon = system: HCT-15 colon
# IGROV1 ovarian = system: IGROV1 ovarian
# HS 578T breast = system: HS 578T breast
# HOP-92 NSCLC = system: HOP-92 NSCLC
# TK-10 renal = system: TK-10 renal
# MALME-3M melanoma = system: MALME-3M melanoma
# OVCAR-4 ovarian = system: OVCAR-4 ovarian
# PC-3 prostate = system: PC-3 prostate
# EKVX NSCLC = system: EKVX NSCLC
# 786-0 renal = system: 786-0 renal
# MDA-N = system: MDA-N
structure (smiles),measurement,setting,value
COc1cc(-c2cn(-c3ccc(F)cc3)c(=O)[nH]2)cc(OC)c1OC,GI50,SF-295 CNS,> 100 µM
same,TGI,SF-295 CNS,> 100 µM
same,GI50,SNB-75 CNS,55.6 µM
same,TGI,SNB-75 CNS,> 100 µM
same,GI50,MDA-MB-231 breast,> 100 µM
same,TGI,MDA-MB-231 breast,> 100 µM
same,GI50,UACC-62 melanoma,> 100 µM
same,TGI,UACC-62 melanoma,> 100 µM
same,GI50,OVCAR-3 ovarian,> 100 µM
same,TGI,OVCAR-3 ovarian,> 100 µM
same,GI50,K-562 leukemia,> 100 µM
same,TGI,K-562 leukemia,> 100 µM
same,GI50,BT-549 breast,> 100 µM
same,TGI,BT-549 breast,> 100 µM
same,GI50,A549 NSCLC,> 100 µM
same,TGI,A549 NSCLC,> 100 µM
same,GI50,NCI/ADR-RES ovarian,> 100 µM
same,TGI,NCI/ADR-RES ovarian,> 100 µM
same,GI50,SK-MEL-2 melanoma,> 100 µM
same,TGI,SK-MEL-2 melanoma,> 100 µM
same,GI50,HCT-116 colon,> 100 µM
same,TGI,HCT-116 colon,> 100 µM
same,GI50,OVCAR-5 ovarian,> 100 µM
same,TGI,OVCAR-5 ovarian,> 100 µM
same,GI50,UACC-257 melanoma,> 100 µM
same,TGI,UACC-257 melanoma,> 100 µM
same,GI50,NCI-H23 lung,> 100 µM
same,TGI,NCI-H23 lung,> 100 µM
same,GI50,OVCAR-8 ovarian,> 100 µM
same,TGI,OVCAR-8 ovarian,> 100 µM
same,GI50,NCI-H522 lung,> 100 µM
same,TGI,NCI-H522 lung,> 100 µM
same,GI50,SW-620 colon,> 100 µM
same,TGI,SW-620 colon,> 100 µM
same,GI50,HCC-2998 colon,> 100 µM
same,TGI,HCC-2998 colon,> 100 µM
same,GI50,A498 renal,> 100 µM
same,TGI,A498 renal,> 100 µM
same,GI50,MOLT-4 leukemia,> 100 µM
same,TGI,MOLT-4 leukemia,> 100 µM
same,GI50,HT29 colon,> 100 µM
same,TGI,HT29 colon,> 100 µM
same,GI50,NCI-H226 lung,> 100 µM
same,TGI,NCI-H226 lung,> 100 µM
same,GI50,MDA-MB-435,> 100 µM
same,TGI,MDA-MB-435,> 100 µM
same,GI50,DU-145 prostate,> 100 µM
same,TGI,DU-145 prostate,> 100 µM
same,GI50,SF-539 CNS,> 100 µM
same,TGI,SF-539 CNS,> 100 µM
same,GI50,U251 CNS,> 100 µM
same,TGI,U251 CNS,> 100 µM
same,GI50,SF-268 CNS,> 100 µM
same,TGI,SF-268 CNS,> 100 µM
same,GI50,HL-60(TB) leukemia,> 100 µM
same,TGI,HL-60(TB) leukemia,> 100 µM
same,GI50,T-47D breast,> 100 µM
same,TGI,T-47D breast,> 100 µM
same,GI50,COLO 205 colon,> 100 µM
same,TGI,COLO 205 colon,> 100 µM
same,GI50,SK-MEL-28 melanoma,> 100 µM
same,TGI,SK-MEL-28 melanoma,> 100 µM
same,GI50,KM12 colon,> 100 µM
same,TGI,KM12 colon,> 100 µM
same,GI50,M14 melanoma,> 100 µM
same,TGI,M14 melanoma,> 100 µM
same,GI50,UO-31 renal,> 100 µM
same,TGI,UO-31 renal,> 100 µM
same,GI50,ACHN renal,> 100 µM
same,TGI,ACHN renal,> 100 µM
same,GI50,SK-OV-3 ovarian,> 100 µM
same,TGI,SK-OV-3 ovarian,> 100 µM
same,GI50,LOX IMVI melanoma,> 100 µM
same,TGI,LOX IMVI melanoma,> 100 µM
same,GI50,SK-MEL-5 melanoma,> 100 µM
same,TGI,SK-MEL-5 melanoma,> 100 µM
same,GI50,SNB-19 CNS,> 100 µM
same,TGI,SNB-19 CNS,> 100 µM
same,GI50,SN12C renal,9.93 µM
same,TGI,SN12C renal,> 100 µM
same,GI50,CCRF-CEM leukemia,> 100 µM
same,TGI,CCRF-CEM leukemia,> 100 µM
same,GI50,RXF 393 renal,> 100 µM
same,TGI,RXF 393 renal,> 100 µM
same,GI50,HOP-62 NSCLC,45 µM
same,TGI,HOP-62 NSCLC,> 100 µM
same,GI50,MCF7 breast,> 100 µM
same,TGI,MCF7 breast,> 100 µM
same,GI50,CAKI-1 renal,> 100 µM
same,TGI,CAKI-1 renal,> 100 µM
same,GI50,NCI-H460 lung,> 100 µM
same,TGI,NCI-H460 lung,> 100 µM
same,GI50,SR leukemia,> 100 µM
same,TGI,SR leukemia,> 100 µM
same,GI50,RPMI-8226 leukemia,> 100 µM
same,TGI,RPMI-8226 leukemia,> 100 µM
same,GI50,HCT-15 colon,> 100 µM
same,TGI,HCT-15 colon,> 100 µM
same,GI50,IGROV1 ovarian,> 100 µM
same,TGI,IGROV1 ovarian,> 100 µM
same,GI50,HS 578T breast,50.9 µM
same,TGI,HS 578T breast,> 100 µM
same,GI50,HOP-92 NSCLC,79.4 µM
same,TGI,HOP-92 NSCLC,> 100 µM
same,GI50,TK-10 renal,> 100 µM
same,TGI,TK-10 renal,> 100 µM
same,GI50,MALME-3M melanoma,> 100 µM
same,TGI,MALME-3M melanoma,> 100 µM
same,GI50,OVCAR-4 ovarian,> 100 µM
same,TGI,OVCAR-4 ovarian,> 100 µM
same,GI50,PC-3 prostate,> 100 µM
same,TGI,PC-3 prostate,> 100 µM
same,GI50,EKVX NSCLC,> 100 µM
same,TGI,EKVX NSCLC,> 100 µM
same,GI50,786-0 renal,> 100 µM
same,TGI,786-0 renal,> 100 µM
CSc1ccc(NC(=O)CCl)cc1,TGI,SF-295 CNS,5.1 µM
same,TGI,SNB-75 CNS,6.23 µM
same,TGI,MDA-MB-231 breast,> 10 µM
same,TGI,UACC-62 melanoma,3.65 µM
same,TGI,OVCAR-3 ovarian,> 10 µM
same,TGI,K-562 leukemia,> 10 µM
same,TGI,A549 NSCLC,5.79 µM
same,TGI,NCI/ADR-RES ovarian,> 10 µM
same,TGI,SK-MEL-2 melanoma,5.1 µM
same,TGI,HCT-116 colon,> 10 µM
same,TGI,OVCAR-5 ovarian,> 10 µM
same,TGI,UACC-257 melanoma,> 10 µM
same,TGI,NCI-H23 lung,> 10 µM
same,TGI,OVCAR-8 ovarian,> 10 µM
same,TGI,NCI-H522 lung,6.82 µM
same,TGI,SW-620 colon,> 10 µM
same,TGI,HCC-2998 colon,7.19 µM
same,TGI,MOLT-4 leukemia,> 10 µM
same,TGI,HT29 colon,> 10 µM
same,TGI,MDA-N,> 10 µM
same,TGI,NCI-H226 lung,> 10 µM
same,TGI,MDA-MB-435,> 10 µM
same,TGI,DU-145 prostate,> 10 µM
same,TGI,SF-539 CNS,> 10 µM
same,TGI,U251 CNS,> 10 µM
same,TGI,SF-268 CNS,> 10 µM
same,TGI,HL-60(TB) leukemia,> 10 µM
same,TGI,T-47D breast,> 10 µM
same,TGI,COLO 205 colon,8.02 µM
same,TGI,SK-MEL-28 melanoma,> 10 µM
same,TGI,KM12 colon,> 10 µM
same,TGI,M14 melanoma,3.73 µM
same,TGI,UO-31 renal,9.79 µM
same,TGI,ACHN renal,> 10 µM
same,TGI,SK-OV-3 ovarian,> 10 µM
same,TGI,LOX IMVI melanoma,> 10 µM
same,TGI,SK-MEL-5 melanoma,3.63 µM
same,TGI,SNB-19 CNS,> 10 µM
same,TGI,SN12C renal,> 10 µM
same,TGI,CCRF-CEM leukemia,> 10 µM
same,TGI,RXF 393 renal,> 10 µM
same,TGI,HOP-62 NSCLC,> 10 µM
same,TGI,MCF7 breast,> 10 µM
same,TGI,CAKI-1 renal,> 10 µM
same,TGI,NCI-H460 lung,> 10 µM
same,TGI,SR leukemia,> 10 µM
same,TGI,RPMI-8226 leukemia,> 10 µM
same,TGI,HCT-15 colon,> 10 µM
same,TGI,IGROV1 ovarian,> 10 µM
same,TGI,HS 578T breast,> 10 µM
same,TGI,HOP-92 NSCLC,8.88 µM
same,TGI,TK-10 renal,> 10 µM
same,TGI,OVCAR-4 ovarian,> 10 µM
same,TGI,PC-3 prostate,> 10 µM
same,TGI,EKVX NSCLC,> 10 µM
same,TGI,786-0 renal,> 10 µM

# From PubChem BioAssay (NCI)
